Among the data in US11685732B2, “MYST family histone acetyltransferase inhibitors” (Epizyme, Inc., priority 2017, dated 2023) are IC50 values, retold here.

As usually defined, the IC50 is the concentration that gives 50% inhibition. Higher therefore signals weaker potency in that assay.

Structures are written as SMILES.

The target in one experiment is KAT-8 (Homo sapiens (Human), UniProt Q9H7Z6). The experiment is described as follows: KAT-8 biochemical inhibition assay (SAMDI mass spectrometry). The procedure, abridged: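 Compounds in 2% DMSO pre-incubated with 12.5 nM enzyme in 50 mM Tris pH 8.0 with Tween20, gelatin and 1 mM DTT. Then 1 μM peptide and 5 μM acetyl-CoA were added, 90 min at 25 °C; formic acid stop and SAMDI-TOF mass spectrometry for IC50.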
Chain of KAT-8 (Q9H7Z6 other isoform, or with tags, fused parts or gaps): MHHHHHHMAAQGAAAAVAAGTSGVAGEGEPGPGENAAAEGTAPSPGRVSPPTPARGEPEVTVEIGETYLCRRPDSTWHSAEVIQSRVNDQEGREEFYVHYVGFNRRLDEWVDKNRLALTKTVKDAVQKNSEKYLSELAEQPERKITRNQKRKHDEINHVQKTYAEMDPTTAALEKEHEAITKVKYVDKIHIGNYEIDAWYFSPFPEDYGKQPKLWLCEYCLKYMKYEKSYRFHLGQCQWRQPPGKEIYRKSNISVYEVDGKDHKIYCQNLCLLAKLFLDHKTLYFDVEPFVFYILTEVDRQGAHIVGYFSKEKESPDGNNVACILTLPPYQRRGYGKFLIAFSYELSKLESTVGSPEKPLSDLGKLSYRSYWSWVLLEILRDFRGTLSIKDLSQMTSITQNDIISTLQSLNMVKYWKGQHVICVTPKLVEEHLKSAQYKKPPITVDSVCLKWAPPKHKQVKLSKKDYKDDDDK

The next experiment deals with KAT-7 (Homo sapiens (Human), UniProt O95251). In words: KAT-7 biochemical inhibition assay (SAMDI mass spectrometry). The procedure, abridged: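 KAT-7 (6 nM) was pre-incubated with serially diluted compound (2% DMSO) in Tris pH 8.0 with DTT. Reaction with 1 μM peptide and 2 μM acetyl-CoA ran 120 min at 25 °C and was stopped with 0.5% formic acid. Acetylation was read by SAMDI-TOF mass spectrometry to give IC50.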
Chain of KAT-7 (O95251 other isoform, or with tags, fused parts or gaps): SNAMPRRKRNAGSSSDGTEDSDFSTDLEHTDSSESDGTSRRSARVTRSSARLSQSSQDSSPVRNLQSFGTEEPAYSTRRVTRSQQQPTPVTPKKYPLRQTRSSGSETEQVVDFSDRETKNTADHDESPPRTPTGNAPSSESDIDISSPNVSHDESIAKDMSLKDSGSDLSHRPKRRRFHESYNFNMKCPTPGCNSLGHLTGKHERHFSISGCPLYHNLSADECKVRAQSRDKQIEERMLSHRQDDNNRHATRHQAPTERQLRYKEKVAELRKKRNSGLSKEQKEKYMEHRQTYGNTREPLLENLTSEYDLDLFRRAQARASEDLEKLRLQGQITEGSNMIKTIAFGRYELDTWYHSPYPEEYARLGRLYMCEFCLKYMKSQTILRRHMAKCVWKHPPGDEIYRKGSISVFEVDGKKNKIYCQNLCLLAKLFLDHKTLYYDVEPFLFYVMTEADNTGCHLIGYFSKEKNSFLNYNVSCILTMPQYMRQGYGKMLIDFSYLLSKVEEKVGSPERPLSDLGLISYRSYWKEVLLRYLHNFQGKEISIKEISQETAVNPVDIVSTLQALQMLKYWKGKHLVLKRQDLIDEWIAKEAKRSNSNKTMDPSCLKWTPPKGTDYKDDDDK

The target of a further experiment is KAT-5 (Homo sapiens (Human), UniProt Q92993). In words: KAT-5 biochemical inhibition assay (SAMDI mass spectrometry). The procedure, abridged:
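KAT-5 at 9 nM final was preincubated with serially diluted compound (2% DMSO) in 50 mM Tris pH 8.0 with 1 mM DTT. Reaction ran with 1 μM peptide substrate and 0.5 μM acetyl-CoA for 90 min at 25° C, was quenched with 0.5% formic acid, and was read by SAMDI-TOF mass spectrometry.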

The target in a further experiment is KAT-6A (Homo sapiens (Human), UniProt Q92794). The experiment is described as follows: KAT-6A biochemical inhibition assay (SAMDI mass spectrometry). The procedure, abridged: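 Enzyme (12.5 nM final) pre-incubated with serially diluted compounds (2% DMSO final) in 50 mM Tris pH 8.0 with Tween20, gelatin and 1 mM DTT. Reaction started with 1 μM peptide substrate and 1 μM acetyl-CoA, run 90 min at 25 °C, quenched with 0.5% formic acid, read by SAMDI-TOF mass spectrometry; IC50 derived.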
Chain of KAT-6A (Q92794 other isoform, or with tags, fused parts or gaps): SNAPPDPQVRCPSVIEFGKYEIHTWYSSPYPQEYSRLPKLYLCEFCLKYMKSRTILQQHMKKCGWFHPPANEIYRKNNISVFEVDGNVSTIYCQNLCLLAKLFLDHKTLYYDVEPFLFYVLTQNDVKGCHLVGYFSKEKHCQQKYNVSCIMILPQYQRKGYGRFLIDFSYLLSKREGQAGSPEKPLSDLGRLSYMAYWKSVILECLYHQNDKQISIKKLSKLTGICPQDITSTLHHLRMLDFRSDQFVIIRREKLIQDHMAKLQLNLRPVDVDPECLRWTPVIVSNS

Chain of KAT-5 (Q92993 other isoform, or with tags, fused parts or gaps): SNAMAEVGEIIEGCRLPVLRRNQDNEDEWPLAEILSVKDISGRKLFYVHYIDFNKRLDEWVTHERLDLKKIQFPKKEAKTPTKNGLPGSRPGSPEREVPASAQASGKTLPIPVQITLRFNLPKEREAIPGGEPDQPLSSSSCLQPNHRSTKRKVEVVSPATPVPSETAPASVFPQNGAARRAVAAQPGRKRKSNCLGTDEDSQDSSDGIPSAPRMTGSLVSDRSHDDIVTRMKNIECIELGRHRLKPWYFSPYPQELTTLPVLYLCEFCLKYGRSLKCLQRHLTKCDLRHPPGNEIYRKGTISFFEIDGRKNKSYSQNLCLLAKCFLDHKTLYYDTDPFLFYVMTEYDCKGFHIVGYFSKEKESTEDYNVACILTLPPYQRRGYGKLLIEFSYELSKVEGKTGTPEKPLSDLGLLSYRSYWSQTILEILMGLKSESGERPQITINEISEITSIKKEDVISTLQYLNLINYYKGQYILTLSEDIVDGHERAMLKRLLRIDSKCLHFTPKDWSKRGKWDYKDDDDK

With `Cn1cnc(-c2cc(Cl)c(F)c(C(=O)NNS(=O)(=O)CC3CCCC(S(=O)(=O)C4CCC4)C3)c2)c1` (stereo not drawn) [Compound I-91], the IC50 against KAT-8 is 10 to 50 µM; on KAT-7, below 10 µM; against KAT-5 it was below 10 µM; against KAT-6A, below 10 µM.
In the case of `CC(C)S(=O)(=O)N1CCC(CS(=O)(=O)NNC(=O)c2cc(-c3cn(C)cn3)cc(Cl)c2F)C1` (stereo not drawn) [Compound I-92], the IC50 at KAT-8 is 10 to 50 µM; on KAT-7, below 10 µM; against KAT-5, below 10 µM; against KAT-6A it was below 10 µM.
As to `Cn1cnc(-c2cc(Cl)c(F)c(C(=O)NNS(=O)(=O)C[C@H]3CC[C@H](N)CC3)c2)c1` [Compound I-93], the IC50 against KAT-8 is 10 to 50 µM; against KAT-7, below 10 µM; at KAT-5 it was 10 to 50 µM; against KAT-6A, 10 to 50 µM.
As for `CCCS(=O)(=O)N1CCCC(CS(=O)(=O)NNC(=O)c2cc(-c3cn(C)cn3)cc(Cl)c2F)C1` (stereo not drawn) [Compound I-94], the IC50 is 10 to 50 µM at KAT-8, below 10 µM against KAT-7, below 10 µM at KAT-5 and below 10 µM at KAT-6A.
For the compound `Cn1cnc(-c2cc(Cl)c(F)c(C(=O)NNS(=O)(=O)CC3CN(C(=O)OC(C)(C)C)C3)c2)c1` [Compound I-95], the IC50 was 10 to 50 µM against KAT-8, below 10 µM against KAT-7, 10 to 50 µM at KAT-5 and below 10 µM against KAT-6A.
On to `Cn1cnc(-c2cc(Cl)c(F)c(C(=O)NNS(=O)(=O)C[C@H]3CC[C@H](NC(=O)OC(C)(C)C)CC3)c2)c1` [Compound I-96], for which the IC50 was 10 to 50 µM against KAT-8, below 10 µM against KAT-7, below 10 µM on KAT-5 and below 10 µM on KAT-6A.
With `CCNC(=O)NC1CCCC(CS(=O)(=O)NNC(=O)c2cc(-c3cn(C)cn3)cc(Cl)c2F)C1` (stereo not drawn) [Compound I-97], the IC50 against KAT-8 was 10 to 50 µM; against KAT-7, below 10 µM; against KAT-5, below 10 µM; against KAT-6A, below 10 µM.
In the case of `Cc1ncnn1-c1cc(Cl)c(F)c(C(=O)NNS(=O)(=O)CC2CCOCC2)c1` [Compound I-100], the IC50 against KAT-8, against KAT-7, against KAT-5 and against KAT-6A was 10 to 50 µM each time.
With `CC(=O)N[C@H]1CC[C@H](CS(=O)(=O)NNC(=O)c2cc(-c3cn(C)cn3)cc(Cl)c2F)CC1` [Compound I-101], the IC50 against KAT-8 is 10 to 50 µM; against KAT-7 it was below 10 µM; at KAT-5, below 10 µM; against KAT-6A it was below 10 µM.
For `Cn1cnc(-c2cc(Cl)c(F)c(C(=O)NNS(=O)(=O)CC3CCCC(NC(=O)OC(C)(C)C)C3)c2)c1` (stereo not drawn) [Compound I-102], the IC50 was 10 to 50 µM against KAT-8, below 10 µM on KAT-7, below 10 µM against KAT-5 and below 10 µM at KAT-6A.
With `Cn1cnc(-c2cc(Cl)c(F)c(C(=O)NNS(=O)(=O)CC3CCCC(N)C3)c2)c1` (stereo not drawn) [Compound I-103], the IC50 on KAT-8 is 10 to 50 µM; at KAT-7, below 10 µM; against KAT-5 it was 10 to 50 µM; against KAT-6A, 10 to 50 µM.
`CN(C)C(=O)NC1CCCC(CS(=O)(=O)NNC(=O)c2cc(-c3cn(C)cn3)cc(Cl)c2F)C1` (stereo not drawn) [Compound I-104]: the IC50 is 10 to 50 µM against KAT-8, below 10 µM at KAT-7, below 10 µM against KAT-5 and below 10 µM at KAT-6A.
Turning to `CCNC(=O)N1CCCC(CS(=O)(=O)NNC(=O)c2cc(-c3cn(C)cn3)cc(Cl)c2F)C1` (stereo not drawn) [Compound I-105], the IC50 against KAT-8 is 10 to 50 µM; at KAT-7, below 10 µM; against KAT-5, below 10 µM; against KAT-6A it was below 10 µM.
For the compound `Cn1cnc(-c2cc(Cl)c(F)c(C(=O)NNS(=O)(=O)CC3CCN(S(=O)(=O)C4CCC4)C3)c2)c1` (stereo not drawn) [Compound I-106], the IC50 on KAT-8 was 10 to 50 µM; at KAT-7, below 10 µM; against KAT-5, below 10 µM; at KAT-6A, below 10 µM.
For the compound `CCNC(=O)N[C@H]1C[C@@H](CS(=O)(=O)NNC(=O)c2cc(-c3cn(C)cn3)cc(Cl)c2F)C1` [Compound I-107], the IC50 is 10 to 50 µM on KAT-8, below 10 µM against KAT-7, below 10 µM at KAT-5 and below 10 µM against KAT-6A.
